Results published in ChEMBL document CHEMBL1154997, “Inhibitors of dipeptidyl peptidase 8 and dipeptidyl peptidase 9. Part 1: identification of dipeptide derived leads” (Bioorg Med Chem Lett, 2008).

Key:
Dipeptidyl peptidase 2 = Dipeptidyl peptidase 2 (Homo sapiens, UniProt Q9UHL4)
Dipeptidyl peptidase 4 = Dipeptidyl peptidase 4 (Homo sapiens, UniProt P27487)
Dipeptidyl peptidase 8 = Dipeptidyl peptidase 8 (Homo sapiens, UniProt Q6V1X1)
Dipeptidyl peptidase 9 = Dipeptidyl peptidase 9 (Homo sapiens, UniProt Q86TI2)
Chain of Dipeptidyl peptidase 9 (Q86TI2 whole entry): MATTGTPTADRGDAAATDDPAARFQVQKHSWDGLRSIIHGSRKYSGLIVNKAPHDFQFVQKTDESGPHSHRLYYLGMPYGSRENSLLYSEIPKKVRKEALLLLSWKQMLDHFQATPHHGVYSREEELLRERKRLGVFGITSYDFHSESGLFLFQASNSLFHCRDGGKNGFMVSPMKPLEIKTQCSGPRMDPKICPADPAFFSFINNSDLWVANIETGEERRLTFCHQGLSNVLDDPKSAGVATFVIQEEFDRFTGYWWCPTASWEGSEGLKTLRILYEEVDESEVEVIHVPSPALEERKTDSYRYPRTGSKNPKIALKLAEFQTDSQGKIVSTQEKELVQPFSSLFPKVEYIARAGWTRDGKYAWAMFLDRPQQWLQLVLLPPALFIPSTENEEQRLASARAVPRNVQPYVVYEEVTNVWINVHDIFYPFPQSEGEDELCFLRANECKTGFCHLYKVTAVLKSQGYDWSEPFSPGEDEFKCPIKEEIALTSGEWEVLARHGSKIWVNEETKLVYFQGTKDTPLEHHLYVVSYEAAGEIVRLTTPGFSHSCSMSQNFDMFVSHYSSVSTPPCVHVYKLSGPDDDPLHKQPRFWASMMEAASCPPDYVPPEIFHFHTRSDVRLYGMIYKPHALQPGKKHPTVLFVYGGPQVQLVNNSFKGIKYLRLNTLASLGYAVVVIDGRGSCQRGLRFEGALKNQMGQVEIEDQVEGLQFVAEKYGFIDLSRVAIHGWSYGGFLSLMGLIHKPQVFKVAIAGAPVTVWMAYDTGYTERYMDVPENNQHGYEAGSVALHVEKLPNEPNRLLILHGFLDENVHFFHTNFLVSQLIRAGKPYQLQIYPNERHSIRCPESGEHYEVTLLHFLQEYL

Chain of Dipeptidyl peptidase 4 (P27487 whole entry): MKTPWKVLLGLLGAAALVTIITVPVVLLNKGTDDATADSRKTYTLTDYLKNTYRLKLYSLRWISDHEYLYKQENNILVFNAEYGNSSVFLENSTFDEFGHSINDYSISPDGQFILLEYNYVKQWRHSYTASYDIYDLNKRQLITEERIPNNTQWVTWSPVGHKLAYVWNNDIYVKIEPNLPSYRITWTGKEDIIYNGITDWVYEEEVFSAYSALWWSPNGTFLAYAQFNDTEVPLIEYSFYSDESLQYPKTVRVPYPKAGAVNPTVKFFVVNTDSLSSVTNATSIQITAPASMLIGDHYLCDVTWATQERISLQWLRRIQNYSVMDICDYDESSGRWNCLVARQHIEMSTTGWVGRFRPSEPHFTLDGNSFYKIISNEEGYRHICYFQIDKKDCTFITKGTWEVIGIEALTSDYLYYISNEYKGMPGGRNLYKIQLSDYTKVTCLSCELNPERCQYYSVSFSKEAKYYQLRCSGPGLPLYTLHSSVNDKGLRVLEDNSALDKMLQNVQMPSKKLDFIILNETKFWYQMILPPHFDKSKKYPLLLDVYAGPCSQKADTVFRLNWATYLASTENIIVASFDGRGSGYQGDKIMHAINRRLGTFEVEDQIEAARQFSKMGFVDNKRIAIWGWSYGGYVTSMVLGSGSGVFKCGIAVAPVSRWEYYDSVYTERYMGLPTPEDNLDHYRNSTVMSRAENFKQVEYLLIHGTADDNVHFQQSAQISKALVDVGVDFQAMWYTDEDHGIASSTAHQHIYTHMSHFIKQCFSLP
Chain of Dipeptidyl peptidase 8 (Q6V1X1 whole entry): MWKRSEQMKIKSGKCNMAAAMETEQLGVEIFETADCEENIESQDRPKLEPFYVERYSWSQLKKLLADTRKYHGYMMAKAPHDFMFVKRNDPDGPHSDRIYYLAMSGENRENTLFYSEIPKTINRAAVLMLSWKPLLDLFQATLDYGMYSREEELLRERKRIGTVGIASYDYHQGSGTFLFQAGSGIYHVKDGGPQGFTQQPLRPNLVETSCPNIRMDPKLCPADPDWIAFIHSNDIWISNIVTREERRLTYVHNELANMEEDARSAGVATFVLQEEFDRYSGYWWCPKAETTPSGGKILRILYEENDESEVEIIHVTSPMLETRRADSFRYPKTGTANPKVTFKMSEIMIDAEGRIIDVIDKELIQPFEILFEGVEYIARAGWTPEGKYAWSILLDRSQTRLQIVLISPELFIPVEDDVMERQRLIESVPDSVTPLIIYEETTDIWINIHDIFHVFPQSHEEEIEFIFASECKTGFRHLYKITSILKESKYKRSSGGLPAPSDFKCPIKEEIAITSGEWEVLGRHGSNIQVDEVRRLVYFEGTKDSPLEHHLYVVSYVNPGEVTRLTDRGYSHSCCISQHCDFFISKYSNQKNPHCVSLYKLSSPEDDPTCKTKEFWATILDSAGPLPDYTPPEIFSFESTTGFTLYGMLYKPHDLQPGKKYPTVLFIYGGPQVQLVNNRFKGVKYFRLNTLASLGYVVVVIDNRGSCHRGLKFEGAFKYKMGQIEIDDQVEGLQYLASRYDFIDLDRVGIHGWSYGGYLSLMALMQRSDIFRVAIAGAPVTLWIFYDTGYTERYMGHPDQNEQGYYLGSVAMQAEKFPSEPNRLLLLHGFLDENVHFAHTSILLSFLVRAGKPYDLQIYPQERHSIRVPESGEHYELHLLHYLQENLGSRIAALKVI

Compound | IC50 (Dipeptidyl peptidase 2) | IC50 (Dipeptidyl peptidase 4) | IC50 (Dipeptidyl peptidase 8) | IC50 (Dipeptidyl peptidase 9) | Ki (Dipeptidyl peptidase 2)
CC(C)[C@H](N)C(=O)N1CCCC1 | 153 µM |  |  |  | 
CCCC[C@H](N)C(=O)N1CCCC1 | 60 µM | 15 µM |  |  | 
NC(=O)C[C@H](N)C(=O)N1CCCC1 | 152 µM | 188 µM | > 500 µM |  | 
C[C@H](N)C(=O)N1CCCC1 |  |  | 411 µM |  | 
CC[C@H](C)[C@H](N)C(=O)N1CCCCCC1 | 228 µM | 374 µM | 612 µM | > 100 µM | 
NCCCC[C@H](N)C(=O)N1CCCc2ccccc21 | 393 µM | > 1000 µM | 312 µM | > 100 µM | 
N[C@@H](Cc1c[nH]c2ccccc12)C(=O)N1CCCC1 | 49 µM | 286 µM | 242 µM | > 100 µM | 
CC[C@H](C)[C@H](N)C(=O)N1CC=CCC1 | 52 µM | 52 µM |  | > 50 µM | 
CC(C)C[C@H](N)C(=O)N1CCCC1 | 122 µM | 24 µM |  |  | 
N[C@@H](Cc1ccccc1)C(=O)N1CCCC1 | 79 µM | 21 µM | 115 µM |  | 
NCCCC[C@H](N)C(=O)N1CCSC1 | 2.9 µM | 23 µM |  |  | 
N[C@@H](CCC(=O)O)C(=O)N1CCCC1 | > 1000 µM | > 1000 µM | > 1000 µM | > 100 µM | 
[N-]=[N+]=NC1CCN(C(=O)[C@@H](N)CCCCN)C1 (stereo partly specified) | 4.9 µM |  |  |  | 
CC[C@H](C)[C@H](N)C(=O)NC1CCCC1 | > 100 µM | > 1000 µM | > 1000 µM | > 100 µM | 
N[C@@H](CS)C(=O)N1CCCC1 | 19 µM | 37 µM |  |  | 
C[C@@H](O)[C@H](N)C(=O)N1CCCC1 | 230 µM | 98 µM |  |  | 
N[C@@H](CO)C(=O)N1CCCC1 | 65 µM | 190 µM | > 500 µM |  | 
N[C@@H](CCCCNC(=O)OCc1ccccc1)C(=O)N1CCCC1 | 5.7 µM | 15.6 µM |  |  | 
NCCC[C@H](N)C(=O)N1CCCC1 | 9.8 µM | 118 µM |  |  | 
N[C@@H](CCCNC(=O)OCc1ccccc1)C(=O)N1CCCC1 | 3.7 µM | 9.7 µM |  |  | 
CC[C@H](C)[C@H](N)C(=O)N1CCC(N=[N+]=[N-])C1 (stereo partly specified) | 43 µM | 107 µM |  |  | 
CC[C@H](C)[C@H](N)C(=O)N1CCC(F)C1 (stereo partly specified) | 111 µM | 3.5 µM |  |  | 
CC[C@H](C)[C@H](N)C(=O)N1CCC(Cl)C1 (stereo partly specified) | 30 µM | 94 µM |  |  | 
N[C@@H](CCCCNC(=O)OCc1ccccc1)C(=O)N1CCSC1 | 1.02 µM | 3.7 µM |  |  | 

Compound | IC50 (Dipeptidyl peptidase 2) | IC50 (Dipeptidyl peptidase 4) | IC50 (Dipeptidyl peptidase 8) | IC50 (Dipeptidyl peptidase 9) | Ki (Dipeptidyl peptidase 2)
N=C(N)NCCC[C@H](N)C(=O)N1CCCC1 | 3.1 µM | 12.7 µM |  |  | 
N=C(NCCC[C@H](NC(=O)OCc1ccccc1)C(=O)N1CCCC1)NC(=O)OCc1ccccc1 | 0.86 µM | 16.8 µM |  |  | 
CC[C@H](C)[C@H](N)C(=O)N1CC=CC1 | 288 µM | 15 µM |  |  | 
CC[C@H](C)[C@H](N)C(=O)N1CCC1 | 730 µM | 50.4 µM | 127 µM | > 100 µM | 
NCCCC[C@H](N)C(=O)N1CCC(O)C1 (stereo partly specified) | 48 µM | 500 µM | 139 µM |  | 
N#C[C@@H]1CCCN1C(=O)[C@@H](N)CCCCN | 0.577 µM |  |  |  | 
N#C[C@@H]1CCCCN1C(=O)[C@@H](N)CCCCN | 1.5 µM | 51 µM |  |  | 
N#C[C@@H]1CCCN1C(=O)[C@@H](N)CCCCNC(=O)OCc1ccccc1 | 0.84 µM | 0.035 µM |  |  | 
N#C[C@@H]1C[C@H](N=[N+]=[N-])CN1C(=O)[C@@H](N)CCCCN | 0.31 µM | 2.2 µM |  |  | 
N#C[C@@H]1C[C@H](N=[N+]=[N-])CN1C(=O)[C@@H](N)CCCCNC(=O)OCc1ccccc1 | 0.35 µM | 0.53 µM |  |  | 
N#C[C@@H]1C[C@H](N=[N+]=[N-])CN1C(=O)[C@@H](N)CCCCNc1ccc2ccccc2c1 | 0.034 µM | 0.56 µM |  |  | 
N#C[C@@H]1C[C@H](N=[N+]=[N-])CN1C(=O)[C@@H](N)CCCCN(c1ccc2ccccc2c1)c1ccc2ccccc2c1 | 0.068 µM |  |  |  | 
N[C@@H](CC(=O)O)C(=O)N1CCCC1 |  |  | > 1000 µM |  | 
NCCCC[C@H](N)C(=O)N1CCCC1 | 9.9 µM | 39 µM |  |  | 
N[C@@H](Cc1c[nH]cn1)C(=O)N1CCCC1 | 1.2 µM | 23.1 µM | > 500 µM | > 100 µM | 
CC[C@H](C)[C@H](N)C(=O)N1CCC(O)C1 (stereo partly specified) | 299 µM | 93 µM | 130 µM | > 100 µM | 
CC(C)[C@H](N)C(=O)N1CSC[C@H]1B(O)O | 0.086 µM |  |  |  | 
N[C@@H](Cc1ccc(O)cc1)C(=O)N1CCCC1 | 15.7 µM | 43.5 µM |  |  | 
N[C@@H](CCCCNC(=O)OCc1ccccc1)C(=O)N1CCCc2ccccc21 | 390 µM | > 1000 µM | > 500 µM | > 100 µM | 
N#C[C@@H]1C[C@H](N=[N+]=[N-])CN1C(=O)[C@@H](N)CCCCN(c1cccc2ccccc12)c1cccc2ccccc12 | 0.025 µM | 2.5 µM |  |  | 
CC[C@H](C)[C@H](N)C(=O)N1CCCCC1 | 59 µM | 67 µM |  |  | 
NCC(=O)N1CCCC1 |  |  | > 1000 µM | > 1000 µM | 
N[C@@H](CCNCc1ccc(Cl)cc1)C(=O)N1CCCCC1 | < 0.0005 µM |  |  | 76.6 µM | 0.082 nM
